Measurements: PubChem BioAssay AID298 (DTP/NCI, 2004)
Where “and” joins values, the source holds several entries; their conditions need not be identical. Identical values can stand only once. Records with an inconclusive call do not appear.

Test system: MX-1 breast xenograft, intrarenal, nude mice, tumor weight
Assay: NCI In Vivo Anticancer Drug Screen. Data for tumor model Human Mammary Carcinoma MX-1 Xenograft (intrarenal inoculation) in NU/NU BALB/C (nude) mice
Details: endpoint: mean tumor weight change, higher = larger tumour
How it was run: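 Antitumor activity is expressed as a T/C ratio. The treated group's tumor size or survival is compared against the vehicle-treated control group in mice bearing transplanted tumors.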

SMILES: C=C(C)C(=O)O[C@H]1CC2=C[C@@H](C[C@@]3(C)O[C@@H]3[C@H]3OC(=O)C(=C)[C@@H]31)OC2=O
- T/C (dose: 37.5 mg/kg/injection, schedule: Q04DX003 (sc), vehicle: Klucel (hydroxypropylcellulose) (HPC)): 96 % of control
- T/C (dose: 75.0 mg/kg/injection, schedule: Q04DX003 (sc), vehicle: Klucel (hydroxypropylcellulose) (HPC)): 78 % of control
- T/C (dose: 150.0 mg/kg/injection, schedule: Q04DX003 (sc), vehicle: Klucel (hydroxypropylcellulose) (HPC)): 104 % of control
- T/C (dose: 300.0 mg/kg/injection, schedule: Q04DX003 (sc), vehicle: Klucel (hydroxypropylcellulose) (HPC)): 72 % of control

SMILES: CC(/C=C/C1OC(=O)C=CC1C)=C\C(C)C/C=C/C(C)=C/C(C)C(=O)C(C)C(O)C(C)C/C(C)=C/C(=O)O (stereo not drawn)
- T/C (dose: 50.0 micrograms/kg/injection, schedule: Q04DX003 (ip), vehicle: alcohol): 104 % of control
- T/C (dose: 100.0 micrograms/kg/injection, schedule: Q04DX003 (ip), vehicle: alcohol): 87 % of control
- T/C (dose: 200.0 micrograms/kg/injection, schedule: Q04DX003 (ip), vehicle: alcohol): 81 % of control
- T/C (dose: 400.0 micrograms/kg/injection, schedule: Q04DX003 (ip), vehicle: alcohol): 111 % of control

SMILES: CS(=O)(=O)c1ncc(Br)cn1
- T/C (dose: 25.0 mg/kg/injection, schedule: Q01DX010 (sc), vehicle: distilled water + Tween-80): 98 % of control
- T/C (dose: 200.0 mg/kg/injection, schedule: Q01DX010 (sc), vehicle: distilled water + Tween-80): 118 % of control

SMILES: CCOC1NC(=O)Oc2ccccc21 (stereo not drawn)
- T/C (dose: 150.0 mg/kg/injection, schedule: Q04DX003 (ip), vehicle: Klucel (hydroxypropylcellulose) (HPC)): 80 % of control
- T/C (dose: 300.0 mg/kg/injection, schedule: Q04DX003 (ip), vehicle: Klucel (hydroxypropylcellulose) (HPC)): 74 % of control
- T/C (dose: 600.0 mg/kg/injection, schedule: Q04DX003 (ip), vehicle: Klucel (hydroxypropylcellulose) (HPC)): 86 % of control
- T/C (dose: 1200.0 mg/kg/injection, schedule: Q04DX003 (ip), vehicle: Klucel (hydroxypropylcellulose) (HPC)): 79 % of control

SMILES: Nc1nc(=S)c2[nH]cnc2[nH]1
- T/C (dose: 1.6 mg/kg/injection, schedule: Q01DX010 (sc), vehicle: Klucel (hydroxypropylcellulose) (HPC)): 50 % of control

SMILES: CN(Cc1cnc2nc(N)nc(N)c2n1)c1c(Cl)cc(C(=O)NC(CCC(=O)O)C(=O)O)cc1Cl (stereo not drawn)
- T/C (dose: 12.5 mg/kg/injection, schedule: Q01DX010 (sc), vehicle: Klucel (hydroxypropylcellulose) (HPC)): 64 % of control
- T/C (dose: 25.0 mg/kg/injection, schedule: Q01DX010 (sc), vehicle: Klucel (hydroxypropylcellulose) (HPC)): 25 % of control
- T/C (dose: 50.0 mg/kg/injection, schedule: Q01DX010 (sc), vehicle: Klucel (hydroxypropylcellulose) (HPC)): -67 % of control

SMILES: CC(=O)NCCSSCCCCS(=O)O
- T/C (dose: 150.0 mg/kg/injection, schedule: Q04DX003 (ip), vehicle: saline): 110 % of control
- T/C (dose: 300.0 mg/kg/injection, schedule: Q04DX003 (ip), vehicle: saline): 112 % of control

SMILES: O=C1[C@@H]2C3C=CC([C@H]4C(=O)N(CO)C(=O)[C@@H]34)[C@@H]2C(=O)N1CO
- T/C (dose: 100.0 mg/kg/injection, schedule: Q04DX003 (ip), vehicle: Klucel (hydroxypropylcellulose) (HPC)): 78 % of control
- T/C (dose: 200.0 mg/kg/injection, schedule: Q04DX003 (ip), vehicle: Klucel (hydroxypropylcellulose) (HPC)): 52 % of control

SMILES: O=C(O)CC(=O)O.[NH-]C1CCCCC1[NH-].[Pt+2] (stereo not drawn)
- T/C (dose: 10.0 mg/kg/injection, schedule: Q01DX010 (sc), vehicle: dextrose): 93 % of control
- T/C (dose: 20.0 mg/kg/injection, schedule: Q01DX010 (sc), vehicle: dextrose): 92 % of control
- T/C (dose: 30.0 mg/kg/injection, schedule: Q01DX010 (sc), vehicle: dextrose): -84 % of control
- T/C (dose: 40.0 mg/kg/injection, schedule: Q01DX010 (sc), vehicle: dextrose): 83 % of control
- T/C (dose: 60.0 mg/kg/injection, schedule: Q01DX010 (sc), vehicle: dextrose): -86 % of control
- T/C (dose: 80.0 mg/kg/injection, schedule: Q01DX010 (sc), vehicle: dextrose): 74 % of control

SMILES: C#CCNC1=C(C)C(=O)C2=C(C1=O)[C@H](COC(N)=O)[C@]1(OC)[C@@H]3N[C@@H]3CN21
- T/C (dose: 1.85 mg/kg/injection, schedule: Q04DX003 (ip), vehicle: distilled water + Tween-80): 48 % of control
- T/C (dose: 1.88 mg/kg/injection, schedule: Q04DX003 (ip), vehicle: distilled water + Tween-80): 97 % of control
- T/C (dose: 3.75 mg/kg/injection, schedule: Q04DX003 (ip), vehicle: distilled water + Tween-80): 49 % of control and 55 % of control

SMILES: COc1ccc2c(c1)CCn1c(C)c(COC(=O)NC(C)C)c(COC(=O)NC(C)C)c1-2
- T/C (dose: 75.0 mg/kg/injection, schedule: Q04DX003 (ip), vehicle: distilled water + Tween-80): -29 % of control

SMILES: C=C(C)/C([O-])=N/[N+](C)(C)CC(O)CCCCCCCCCCCC (stereo not drawn)
- T/C (dose: 5.0 mg/kg/injection, schedule: Q04DX003 (ip), vehicle: Klucel (hydroxypropylcellulose) (HPC)): 76 % of control
- T/C (dose: 10.0 mg/kg/injection, schedule: Q04DX003 (ip), vehicle: Klucel (hydroxypropylcellulose) (HPC)): 111 % of control
- T/C (dose: 20.0 mg/kg/injection, schedule: Q04DX003 (ip), vehicle: Klucel (hydroxypropylcellulose) (HPC)): 90 % of control and 103 % of control
- T/C (dose: 40.0 mg/kg/injection, schedule: Q04DX003 (ip), vehicle: Klucel (hydroxypropylcellulose) (HPC)): 78 % of control
- T/C (dose: 80.0 mg/kg/injection, schedule: Q04DX003 (ip), vehicle: Klucel (hydroxypropylcellulose) (HPC)): 102 % of control and 118 % of control
- T/C (dose: 320.0 mg/kg/injection, schedule: Q04DX003 (ip), vehicle: Klucel (hydroxypropylcellulose) (HPC)): 85 % of control
